Experimental data: US20100298141A1, “SUBSTITUTED PYRIDINE N-OXIDE HERBICIDES” (E. I. DU PONT DE NEMOURS AND COMPANY, priority 2007, published 2010)

Legend:
kochia = test: Test C pre-/postemergence test; assay type: in vivo, Kochia scoparia; conditions: for Plant response rating, Kochia: scale 0 to 100, 0 no effect, 100 complete control
Outline: (§1)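 Compounds in a non-phytotoxic solvent with surfactant applied preemergence to seeded pots and, at the same time, postemergence to plants 2–18 cm tall (1- to 4-leaf stage). Paddy tests: pots flooded to 3 cm, compound applied into the water, depth held throughout.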

morningglory = test: Test A pre-/postemergence greenhouse test; assay type: in vivo, Ipomoea spp.; conditions: for Morningglory plant response rating: 0 to 100 scale
Outline: (§2)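 Untreated controls served as the reference for visual injury ratings taken about ten days after spraying. The non-phytotoxic solvent/surfactant formulation was applied preemergence to seeded loam and sand and postemergence to plants two to ten cm high.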

wild oat = test: Test C pre-/postemergence test; assay type: in vivo, Avena fatua; conditions: for Plant response rating, Oat, Wild: scale 0 to 100, 0 no effect, 100 complete control
Outline: as §1

redroot pigweed = test: Test A pre-/postemergence greenhouse test; assay type: in vivo, Amaranthus retroflexus; conditions: for Pigweed plant response rating: 0 to 100 scale
Outline: as §2

downy brome = test: Test C pre-/postemergence test; assay type: in vivo, Bromus tectorum; conditions: for Plant response rating, Bromegrass, Downy: scale 0 to 100, 0 no effect, 100 complete control
Outline: as §1

woolly cupgrass = test: Test C pre-/postemergence test; assay type: in vivo, Eriochloa villosa; conditions: for Plant response rating, Cupgrass, Woolly: scale 0 to 100, 0 no effect, 100 complete control
Outline: as §1

blackgrass = test: Test C pre-/postemergence test; assay type: in vivo, Alopecurus myosuroides; conditions: for Plant response rating, Blackgrass: scale 0 to 100, 0 no effect, 100 complete control
Outline: as §1

rice = test: Test C flooded paddy test; assay type: in vivo, Oryza sativa; conditions: Flood
Outline: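 Test compounds are applied straight into paddy water held 3 cm above the soil surface, with that flood maintained for the whole test. After 13 to 15 days in the greenhouse, each species is scored visually relative to controls.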

lambsquarters = test: Test C pre-/postemergence test; assay type: in vivo, Chenopodium album; conditions: for Plant response rating, Lambsquarters: scale 0 to 100, 0 no effect, 100 complete control
Outline: as §1

cocklebur = test: Test C pre-/postemergence test; assay type: in vivo, Xanthium strumarium; conditions: for Plant response rating, Cocklebur: scale 0 to 100, 0 no effect, 100 complete control
Outline: as §1

soybean = test: Test C pre-/postemergence test; assay type: in vivo, Glycine max; conditions: for Plant response rating, Soybean: scale 0 to 100, 0 no effect, 100 complete control
Outline: as §1

green foxtail = test: Test C pre-/postemergence test; assay type: in vivo, Setaria viridis; conditions: for Plant response rating, Foxtail, Green: scale 0 to 100, 0 no effect, 100 complete control
Outline: as §1

yellow nutsedge = test: Test C pre-/postemergence test; assay type: in vivo, Cyperus esculentus; conditions: for Plant response rating, Nutsedge, Yellow: scale 0 to 100, 0 no effect, 100 complete control
Outline: as §1

catchweed bedstraw = test: Test C pre-/postemergence test; assay type: in vivo, Galium aparine
Outline: as §1

bermudagrass = test: Test C pre-/postemergence test; assay type: in vivo, Cynodon dactylon; conditions: for Plant response rating, Bermudagrass: scale 0 to 100, 0 no effect, 100 complete control
Outline: as §1

[1] = 31 g ai/ha, Preemergence, scale 0 to 100
[2] = 62 g ai/ha, preemergence, scale 0 (no effect) to 100 (complete control)
[3] = preemergence, 125 g ai/ha, scale 0 (no effect) to 100 (complete control)
[4] = Postemergence, 125 g ai/ha, 0 is no effect, 100 is complete control
[5] = Postemergence, 500 g ai/ha, 0 is no effect, 100 is complete control
[6] = Preemergence, 125 g ai/ha, 0 no effect, 100 complete control
[7] = Preemergence, 500 g ai/ha, 0 to 100 scale where 0 is no effect and 100 is complete control

Cn1nc(C(F)(F)F)c(C[S+]([O-])c2cccc[n+]2[O-])c1OC(F)F (stereo not shown) [Compound 3]
Kochia plant response rating (kochia; [1]): 80 | Kochia plant response rating (kochia; [2]): 100 | Plant response rating (0 to 100), Kochia (kochia; Postemergence, 31 g ai/ha): 5 | Plant response rating, Kochia (kochia; Postemergence, 62 g ai/ha): 5 | Plant response rating, Kochia (kochia; Postemergence, 125 g ai/ha): 10 | Plant response rating, Kochia (kochia; Postemergence, 250 g ai/ha): 10 | Plant response rating (0 to 100), Kochia (kochia; Preemergence, 250 g ai/ha): 100 | Kochia plant response rating (kochia; [3]): 100 | Morningglory plant response rating (morningglory; [4]): 70 | Morningglory plant response rating (morningglory; [5]): 90 | Morningglory plant response rating (morningglory; [6]): 80 | Plant response rating, Morningglory (morningglory; [7]): 100 | Oat, Wild plant response rating (wild oat; [1]): 30 | Oat, Wild plant response rating (wild oat; [2]): 40 | Plant response rating (0 to 100), Oat, Wild (wild oat; Postemergence, 31 g ai/ha): 0 | Plant response rating, Oat, Wild (wild oat; Postemergence, 62 g ai/ha): 0 | Plant response rating, Oat, Wild (wild oat; Postemergence, 125 g ai/ha): 0 | Plant response rating, Oat, Wild (wild oat; Postemergence, 250 g ai/ha): 0 | Plant response rating (0 to 100), Oat, Wild (wild oat; Preemergence, 250 g ai/ha): 100 | Oat, Wild plant response rating (wild oat; [3]): 80 | Pigweed plant response rating (redroot pigweed; [4]): 80 | Pigweed plant response rating (redroot pigweed; [5]): 90 | Pigweed plant response rating (redroot pigweed; [6]): 100 | Plant response rating, Pigweed (redroot pigweed; [7]): 100 | Bromegrass, Downy plant response rating (downy brome; [1]): 0 | Bromegrass, Downy plant response rating (downy brome; [2]): 60 | Plant response rating (0 to 100), Bromegrass, Downy (downy brome; Postemergence, 31 g ai/ha): 0 | Plant response rating, Bromegrass, Downy (downy brome; Postemergence, 62 g ai/ha): 0 | Plant response rating, Bromegrass, Downy (downy brome; Postemergence, 125 g ai/ha): 0 | Plant response rating, Bromegrass, Downy (downy brome; Postemergence, 250 g ai/ha): 0 | Plant response rating (0 to 100), Bromegrass, Downy (downy brome; Preemergence, 250 g ai/ha): 100 | Bromegrass, Downy plant response rating (downy brome; [3]): 98 | Cupgrass, Woolly plant response rating (woolly cupgrass; [1]): 60 | Cupgrass, Woolly plant response rating (woolly cupgrass; [2]): 60 | Plant response rating (0 to 100), Cupgrass, Woolly (woolly cupgrass; Postemergence, 31 g ai/ha): 0 | Plant response rating, Cupgrass, Woolly (woolly cupgrass; Postemergence, 62 g ai/ha): 0 | Plant response rating, Cupgrass, Woolly (woolly cupgrass; Postemergence, 125 g ai/ha): 20 | Plant response rating, Cupgrass, Woolly (woolly cupgrass; Postemergence, 250 g ai/ha): 40 | Plant response rating (0 to 100), Cupgrass, Woolly (woolly cupgrass; Preemergence, 250 g ai/ha): 100 | Cupgrass, Woolly plant response rating (woolly cupgrass; [3]): 85 | Blackgrass plant response rating (blackgrass; [1]): 70 | Blackgrass plant response rating (blackgrass; [2]): 70 | Plant response rating (0 to 100), Blackgrass (blackgrass; Postemergence, 31 g ai/ha): 0 | Plant response rating, Blackgrass (blackgrass; Postemergence, 62 g ai/ha): 0 | Plant response rating, Blackgrass (blackgrass; Postemergence, 125 g ai/ha): 0 | Plant response rating, Blackgrass (blackgrass; Postemergence, 250 g ai/ha): 20 | Plant response rating (0 to 100), Blackgrass (blackgrass; Preemergence, 250 g ai/ha): 100 | Blackgrass plant response rating (blackgrass; [3]): 100 | Plant response rating, Rice (rice; 31 g ai/ha, scale 0 to 100 (0 no effect, 100 complete control)): 0 | Plant response rating, Rice (rice; 62 g ai/ha, scale 0 to 100, 0 no effect, 100 complete control, 13 to 15 days): 0 | Plant response rating, Rice (rice; 125 g ai/ha, scale 0 to 100, 0 no effect, 100 complete control, 13 to 15 days): 60 | Plant response rating, Rice (rice; 250 g ai/ha, scale 0 to 100 (0 no effect, 100 complete control)): 70 | Lambsquarters plant response rating (lambsquarters; [1]): 98 | Lambsquarters plant response rating (lambsquarters; [2]): 100 | Plant response rating (0 to 100), Lambsquarters (lambsquarters; Postemergence, 31 g ai/ha): 10 | Plant response rating, Lambsquarters (lambsquarters; Postemergence, 62 g ai/ha): 15 | Plant response rating, Lambsquarters (lambsquarters; Postemergence, 125 g ai/ha): 20 | Plant response rating, Lambsquarters (lambsquarters; Postemergence, 250 g ai/ha): 20 | Plant response rating (0 to 100), Lambsquarters (lambsquarters; Preemergence, 250 g ai/ha): 100 | Lambsquarters plant response rating (lambsquarters; [3]): 100 | Cocklebur plant response rating (cocklebur; [1]): 0 | Cocklebur plant response rating (cocklebur; [2]): 0 | Plant response rating (0 to 100), Cocklebur (cocklebur; Postemergence, 31 g ai/ha): 0 | Plant response rating, Cocklebur (cocklebur; Postemergence, 62 g ai/ha): 0 | Plant response rating, Cocklebur (cocklebur; Postemergence, 125 g ai/ha): 0 | Plant response rating, Cocklebur (cocklebur; Postemergence, 250 g ai/ha): 10 | Plant response rating (0 to 100), Cocklebur (cocklebur; Preemergence, 250 g ai/ha): 5 | Cocklebur plant response rating (cocklebur; [3]): 0 | Soybean plant response rating (soybean; [1]): 5 | Soybean plant response rating (soybean; [2]): 30 | Plant response rating (0 to 100), Soybean (soybean; Postemergence, 31 g ai/ha): 40 | Plant response rating (0 to 100), Soybean (soybean; Postemergence, 62 g ai/ha): 60 | Plant response rating, Soybean (soybean; Postemergence, 125 g ai/ha): 70 | Plant response rating, Soybean (soybean; Postemergence, 250 g ai/ha): 85 | Plant response rating (0 to 100), Soybean (soybean; Preemergence, 250 g ai/ha): 95 | Soybean plant response rating (soybean; [3]): 95 | Foxtail, Green plant response rating (green foxtail; [1]): 75 | Foxtail, Green plant response rating (green foxtail; [2]): 85 | Plant response rating (0 to 100), Foxtail, Green (green foxtail; Postemergence, 31 g ai/ha): 0 | Plant response rating, Foxtail, Green (green foxtail; Postemergence, 62 g ai/ha): 0 | Plant response rating, Foxtail, Green (green foxtail; Postemergence, 125 g ai/ha): 10 | Plant response rating, Foxtail, Green (green foxtail; Postemergence, 250 g ai/ha): 55 | Plant response rating (0 to 100), Foxtail, Green (green foxtail; Preemergence, 250 g ai/ha): 100 | Foxtail, Green plant response rating (green foxtail; [3]): 98 | Nutsedge, Yellow plant response rating (yellow nutsedge; [1]): 0 | Nutsedge, Yellow plant response rating (yellow nutsedge; [2]): 100 | Plant response rating (0 to 100), Nutsedge, Yellow (yellow nutsedge; Postemergence, 31 g ai/ha): 0 | Plant response rating, Nutsedge, Yellow (yellow nutsedge; Postemergence, 62 g ai/ha): 0 | Plant response rating, Nutsedge, Yellow (yellow nutsedge; Postemergence, 125 g ai/ha): 0 | Plant response rating, Nutsedge, Yellow (yellow nutsedge; Postemergence, 250 g ai/ha): 0 | Plant response rating (0 to 100), Nutsedge, Yellow (yellow nutsedge; Preemergence, 250 g ai/ha): 100 | Nutsedge, Yellow plant response rating (yellow nutsedge; [3]): 100 | Galium plant response rating (catchweed bedstraw; [1]): 0 | Galium plant response rating (catchweed bedstraw; [2]): 0 | Plant response rating (0 to 100), Galium (catchweed bedstraw; Preemergence, 250 g ai/ha): 100 | Galium plant response rating (catchweed bedstraw; [3]): 95 | Bermudagrass plant response rating (bermudagrass; [1]): 80 | Bermudagrass plant response rating (bermudagrass; [2]): 100 | Plant response rating (0 to 100), Bermudagrass (bermudagrass; Postemergence, 31 g ai/ha): 0 | Plant response rating, Bermudagrass (bermudagrass; Postemergence, 125 g ai/ha): 50 | Plant response rating, Bermudagrass (bermudagrass; Postemergence, 250 g ai/ha): 50 | Plant response rating (0 to 100), Bermudagrass (bermudagrass; Preemergence, 250 g ai/ha): 100 | Bermudagrass plant response rating (bermudagrass; [3]): 100
